In PubChem BioAssay (NCI):
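Method: 48-hour compound exposure of cells in 96-well plates, five concentrations, linear interpolation of endpoints. Definition used: TGI = concentration required for complete inhibition of growth.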

Key:
Test in all cases: NCI tumour cell line growth inhibition, 48 h
SN12C renal = tested on: SN12C renal
SR leukemia = tested on: SR leukemia
TK-10 renal = tested on: TK-10 renal
HT29 colon = tested on: HT29 colon
SK-MEL-2 melanoma = tested on: SK-MEL-2 melanoma
LOX IMVI melanoma = tested on: LOX IMVI melanoma
SK-OV-3 ovarian = tested on: SK-OV-3 ovarian
MALME-3M melanoma = tested on: MALME-3M melanoma
SF-268 CNS = tested on: SF-268 CNS
A498 renal = tested on: A498 renal
NCI-H226 lung = tested on: NCI-H226 lung
A549 NSCLC = tested on: A549 NSCLC
U251 CNS = tested on: U251 CNS
HCT-15 colon = tested on: HCT-15 colon
HCT-116 colon = tested on: HCT-116 colon
NCI-H460 lung = tested on: NCI-H460 lung
OVCAR-5 ovarian = tested on: OVCAR-5 ovarian
SF-539 CNS = tested on: SF-539 CNS
SW-620 colon = tested on: SW-620 colon
786-0 renal = tested on: 786-0 renal
MDA-N = tested on: MDA-N
ACHN renal = tested on: ACHN renal
HS 578T breast = tested on: HS 578T breast
NCI-H23 lung = tested on: NCI-H23 lung
CAKI-1 renal = tested on: CAKI-1 renal
HL-60(TB) leukemia = tested on: HL-60(TB) leukemia
CCRF-CEM leukemia = tested on: CCRF-CEM leukemia
SNB-19 CNS = tested on: SNB-19 CNS
PC-3 prostate = tested on: PC-3 prostate
KM12 colon = tested on: KM12 colon
SNB-75 CNS = tested on: SNB-75 CNS
HOP-92 NSCLC = tested on: HOP-92 NSCLC
RPMI-8226 leukemia = tested on: RPMI-8226 leukemia
SK-MEL-5 melanoma = tested on: SK-MEL-5 melanoma
MCF7 breast = tested on: MCF7 breast
M14 melanoma = tested on: M14 melanoma
MDA-MB-231 breast = tested on: MDA-MB-231 breast
OVCAR-4 ovarian = tested on: OVCAR-4 ovarian
EKVX NSCLC = tested on: EKVX NSCLC
NCI/ADR-RES ovarian = tested on: NCI/ADR-RES ovarian
K-562 leukemia = tested on: K-562 leukemia
HOP-62 NSCLC = tested on: HOP-62 NSCLC
SK-MEL-28 melanoma = tested on: SK-MEL-28 melanoma
NCI-H522 lung = tested on: NCI-H522 lung
UACC-62 melanoma = tested on: UACC-62 melanoma
MDA-MB-435 = tested on: MDA-MB-435
BT-549 breast = tested on: BT-549 breast
UO-31 renal = tested on: UO-31 renal
COLO 205 colon = tested on: COLO 205 colon
DU-145 prostate = tested on: DU-145 prostate
OVCAR-3 ovarian = tested on: OVCAR-3 ovarian
IGROV1 ovarian = tested on: IGROV1 ovarian
T-47D breast = tested on: T-47D breast
MOLT-4 leukemia = tested on: MOLT-4 leukemia
HCC-2998 colon = tested on: HCC-2998 colon
UACC-257 melanoma = tested on: UACC-257 melanoma
SF-295 CNS = tested on: SF-295 CNS
OVCAR-8 ovarian = tested on: OVCAR-8 ovarian
RXF 393 renal = tested on: RXF 393 renal

SMILES: CS(=O)(=O)NC12CCC(c3ccccc31)c1ccccc12
- TGI (SN12C renal): > 100 µM
- TGI (SR leukemia): > 100 µM
- TGI (TK-10 renal): > 100 µM
- TGI (HT29 colon): > 100 µM
- TGI (SK-MEL-2 melanoma): > 100 µM
- TGI (LOX IMVI melanoma): > 100 µM
- TGI (SK-OV-3 ovarian): > 100 µM
- TGI (MALME-3M melanoma): > 100 µM
- TGI (SF-268 CNS): > 100 µM
- TGI (A498 renal): > 100 µM
- TGI (NCI-H226 lung): > 100 µM
- TGI (A549 NSCLC): > 100 µM
- TGI (U251 CNS): > 100 µM
- TGI (HCT-15 colon): > 100 µM
- TGI (HCT-116 colon): > 100 µM
- TGI (NCI-H460 lung): > 100 µM
- TGI (OVCAR-5 ovarian): > 100 µM
- TGI (SF-539 CNS): > 100 µM
- TGI (SW-620 colon): > 100 µM
- TGI (786-0 renal): > 100 µM
- TGI (MDA-N): > 100 µM
- TGI (ACHN renal): > 100 µM
- TGI (HS 578T breast): > 100 µM
- TGI (NCI-H23 lung): > 100 µM
- TGI (CAKI-1 renal): > 100 µM
- TGI (HL-60(TB) leukemia): > 100 µM
- TGI (CCRF-CEM leukemia): > 100 µM
- TGI (SNB-19 CNS): > 100 µM
- TGI (PC-3 prostate): > 100 µM
- TGI (KM12 colon): > 100 µM
- TGI (SNB-75 CNS): > 100 µM
- TGI (HOP-92 NSCLC): > 100 µM
- TGI (RPMI-8226 leukemia): > 100 µM
- TGI (SK-MEL-5 melanoma): > 100 µM
- TGI (MCF7 breast): > 100 µM
- TGI (M14 melanoma): > 100 µM
- TGI (MDA-MB-231 breast): > 100 µM
- TGI (OVCAR-4 ovarian): > 100 µM
- TGI (EKVX NSCLC): > 100 µM
- TGI (NCI/ADR-RES ovarian): > 100 µM
- TGI (K-562 leukemia): > 100 µM
- TGI (HOP-62 NSCLC): > 100 µM
- TGI (SK-MEL-28 melanoma): > 100 µM
- TGI (NCI-H522 lung): > 100 µM
- TGI (UACC-62 melanoma): > 100 µM
- TGI (MDA-MB-435): > 100 µM
- TGI (BT-549 breast): > 100 µM
- TGI (UO-31 renal): > 100 µM
- TGI (COLO 205 colon): > 100 µM
- TGI (DU-145 prostate): > 100 µM
- TGI (OVCAR-3 ovarian): > 100 µM
- TGI (IGROV1 ovarian): > 100 µM
- TGI (T-47D breast): > 100 µM
- TGI (MOLT-4 leukemia): > 100 µM

SMILES: O=C(c1ccco1)N(C(=S)OC12CC3CC(CC(C3)C1)C2)c1ccccc1
- TGI (SN12C renal): 62.8 µM
- TGI (SR leukemia): 97.9 µM
- TGI (TK-10 renal): > 100 µM
- TGI (HT29 colon): > 100 µM
- TGI (SK-MEL-2 melanoma): 40.9 µM
- TGI (LOX IMVI melanoma): 86.2 µM
- TGI (SK-OV-3 ovarian): > 100 µM
- TGI (MALME-3M melanoma): 65.7 µM
- TGI (HCC-2998 colon): 72 µM
- TGI (SF-268 CNS): > 100 µM
- TGI (A498 renal): 84.6 µM
- TGI (NCI-H226 lung): > 100 µM
- TGI (A549 NSCLC): > 100 µM
- TGI (U251 CNS): 59.5 µM
- TGI (HCT-15 colon): > 100 µM
- TGI (HCT-116 colon): 48.7 µM
- TGI (NCI-H460 lung): > 100 µM
- TGI (UACC-257 melanoma): > 100 µM
- TGI (OVCAR-5 ovarian): > 100 µM
- TGI (SF-539 CNS): 41.7 µM
- TGI (SW-620 colon): > 100 µM
- TGI (786-0 renal): 93.4 µM
- TGI (MDA-N): 83.9 µM
- TGI (ACHN renal): 83.6 µM
- TGI (HS 578T breast): 98 µM
- TGI (NCI-H23 lung): 87.3 µM
- TGI (CAKI-1 renal): > 100 µM
- TGI (HL-60(TB) leukemia): 63.6 µM
- TGI (CCRF-CEM leukemia): 59.5 µM
- TGI (SNB-19 CNS): > 100 µM
- TGI (PC-3 prostate): 60.3 µM
- TGI (KM12 colon): > 100 µM
- TGI (SNB-75 CNS): > 100 µM
- TGI (HOP-92 NSCLC): > 100 µM
- TGI (SK-MEL-5 melanoma): 35.5 µM
- TGI (MCF7 breast): 85.3 µM
- TGI (M14 melanoma): 43.7 µM
- TGI (MDA-MB-231 breast): > 100 µM
- TGI (OVCAR-4 ovarian): > 100 µM
- TGI (EKVX NSCLC): 50.1 µM
- TGI (SF-295 CNS): > 100 µM
- TGI (OVCAR-8 ovarian): > 100 µM
- TGI (RXF 393 renal): 44.8 µM
- TGI (NCI/ADR-RES ovarian): > 100 µM
- TGI (K-562 leukemia): > 100 µM
- TGI (HOP-62 NSCLC): > 100 µM
- TGI (SK-MEL-28 melanoma): > 100 µM
- TGI (NCI-H522 lung): 51.8 µM
- TGI (UACC-62 melanoma): 73.4 µM
- TGI (MDA-MB-435): 90.3 µM
- TGI (BT-549 breast): > 100 µM
- TGI (UO-31 renal): 98.7 µM
- TGI (COLO 205 colon): 32.4 µM
- TGI (DU-145 prostate): > 100 µM
- TGI (OVCAR-3 ovarian): 77.4 µM
- TGI (T-47D breast): > 100 µM
- TGI (MOLT-4 leukemia): > 100 µM
